{"source": "patent US9546381B2", "about": "“Use of anticoagulants in the production of recombinant proteins in the milk of transgenic animals” (priority 2010, dated 2017)", "key": {"[1]": {"tested_on": "clots and flakes in the milk of transgenic rhFib cattle", "assay": "Clot scoring of milk of transgenic rhFib cattle during induced lactation", "assay_type": "in vivo", "parameters": "key to clot scores / clot score: 0: Normal milk; 1: Flakes; 2: Less than 10 clots from the quarter on the CMT paddle; 3: Greater than 10 clots from the quarter on the CMT paddle; 4: Severe visible clots", "from_the_text": "Recombinant human fibrinogen has been produced in the milk of transgenic cows for some years now. […] To score the level of clotting and to measure any effects, standards were set to determine whether treatment of the cows to reduce clotting was indeed effective. The standards are provided in Table I. Score level 0 is equal to normal milk from non-transgenic cows, whereas score level 4 equals a dramatic level of clotting and the milking machine is unable to extract the milk from the teat. CMT stands for ‘California Mastitis Test’ and is a standard cow side test that screens for the presence of mastitis, a known cause of milk clotting. When a cow is milked, the milk is collected in a so-called CMT paddle, which has four cups corresponding to the four quarters of the udder. To these cups, equal amounts of CMT solution (made up of a detergent to break down cell walls, a compound that reacts with the cellular DNA and a pH indicator; California Mastitis Test kit, TechniVet, Brunswick, Me.) is added after which the solution is swirled. The CMT solution provides an estimate of the number of cells in the milk (inflammatory cells due to infection by mastitis). As the cell content increases the mixture becomes thick and gel-like and the results are based on the appearance of the solutions. ‘Negative’ in the mastitis test means that the mixture remains fluid; ‘suspicious’ means that the mixture becomes slimy or gel like, and ‘positive’ means that the mixture distinctly forms a gel or jelly. […] The lack of mastitis was also confirmed by the fact that in laboratory tests no inflammatory-inducing bacteria were grown from the rhFib transgenic cow milk. Finally the clinical signs of the cows confirmed that infectious mastitis was not the etiology of the clotting. […] The (blue) staining by the CMT solution provided a useful tool to visualize the clots and helped to distinguish between some of the low scores of rate 1 and 2.\nA cow's udder has four quarters, each with their own teat. A cow may loose a quarter due to mastitis but still give milk through the remaining quarters. […] Therefore at each milking period, each quarter was given a clot score and recorded on her milk sheet form. The highest score on the paddle for each day was considered the cow's score for that day when complying the clotting data.\nWith natural lactation, it is common for cattle to develop swelling and edema in their udders around the time of calving and as they “come into milk” during the first few weeks of lactation. This inflammation of the mammary tissue may activate the rhFib and lead to precipitation within the mammary tissue. This then may lead to a decrease in the milk production and difficulty in removing the milk from the gland. It was hypothesized by the inventors that by a non-natural lactation (that is: by a chemical/hormonal lactation induction), this udder swelling and edema would be avoided and the rhFib would not be activated. This would facilitate an easier lactation with minimal precipitation. For this reason, lactation induction was chosen to produce rhFib in cow #13.\nAfter this, all clot scores remained between 0-1. […] This dose was maintained during day 17 to day 31 and all clot scores still remained between 0-1.\nSeven transgenic rhFib cattle were induced to lactate using an estradiol-progesterone alcohol solution and dexamethasone injections as outlined above. From these seven animals, after an initial 34 days of milking, five transgenic cattle were selected to complete an ongoing 16 week lactation period (146 days in total). During this 16 week period 5 liters of milk was saved per animal per week for future production purposes. If an animal was to develop consistent clotting within this production period then a treatment trial with warfarin would begin. Data was collected on these animals to see what level of clot scores they generally reached. […]"}, "[2]": {"tested_on": "recombinant human fibrinogen (rhFib)", "assay": "ELISA of rhFib concentration in the milk of warfarin-treated transgenic heifers", "settings": "for rhFib level: ELISA, lines = day, warfarin started on day 1"}, "[3]": {"assay": "Determination of warfarin dosing in non-transgenic non-lactating cows (PT time, adverse effects)", "assay_type": "in vivo, cattle", "protocol": "An initial experiment was performed to determine a dose range of warfarin in cattle. […] The doses therein range from 0.012 to 0.57 mg/kg.\nAn initial baseline Prothombin time (PT time) and Hematocrit (Hct) were determined. For cow #4289 Hct was 38 and PT was 25.9 seconds. For cow #6685 Hct was 27 and PT time was 26.7 seconds. PT time is a laboratory assay that reflects the depression of vitamin K dependent Factors II, -VII and -X. The PT times were used to determine the final dosing. The PT time test that is generally used in the art, looks at coagulation factors Factor I (fibrinogen), Factor II (prothrombin), Factor V, Factor VII and Factor X, that are all involved in clotting. The test measures the time it takes for a patient's blood to clot. […] The Hct value is helpful to determine if the animal is becoming anemic (i.e. blood loss that would not be grossly evident). In general, Hct is not checked unless one is concerned that blood loss is occurring.\nInitially a dose necessary to double the baseline PT times was to be determined and then the dose was to be increased to monitor for adverse affects. It was decided that if the PT levels began to be prolonged over 2.5 times baseline, or Hct fell below 15% the dose would be decreased. Likewise, it was held that the dose would be decreased or discontinued if any of the following disorders would appear: hematomas, anemia, epistaxis, hematemesis, hematuria, melena, hemathrosis, hemothrax, weakness or hematochezia, or bleeding within the udder. Therapy with vitamin K1 and whole blood would be initiated if there was evidence of […] bleeding.\nMoreover, and for the same reason, pregnant animals were also not treated with warfarin.\nThe dose was increased by 10 mg/day until a dose of 100 mg/day was given (˜0.14 mg/kg). Then, this dose was maintained for 12 days. […] Therefore the following adjustments were made: First, the animal was sedated with xylazine, and second, blood was only collected from the jugular vein while the animal's head was tightly restrained. The dose was increased to 120 mg/day (˜0.17 mg/kg) for 17 days.\nIt took 6 days of therapy for the PT times to double. […] For this reason, this dose of approximately 0.18 mg/kg was then considered unsafe for use in the transgenic rhFib cows."}, "[4]": {"settings": "for 5 days; cited from earlier work"}, "[5]": {"tested_on": "clots and flakes in the milk of rhFib transgenic cattle", "assay": "Clot scoring of milk of rhFib transgenic cow and heifers during natural lactation", "assay_type": "in vivo", "settings": "all five animals", "from_the_text": "Recombinant human fibrinogen has been produced in the milk of transgenic cows for some years now. […] To score the level of clotting and to measure any effects, standards were set to determine whether treatment of the cows to reduce clotting was indeed effective. The standards are provided in Table I. Score level 0 is equal to normal milk from non-transgenic cows, whereas score level 4 equals a dramatic level of clotting and the milking machine is unable to extract the milk from the teat. CMT stands for ‘California Mastitis Test’ and is a standard cow side test that screens for the presence of mastitis, a known cause of milk clotting. When a cow is milked, the milk is collected in a so-called CMT paddle, which has four cups corresponding to the four quarters of the udder. To these cups, equal amounts of CMT solution (made up of a detergent to break down cell walls, a compound that reacts with the cellular DNA and a pH indicator; California Mastitis Test kit, TechniVet, Brunswick, Me.) is added after which the solution is swirled. The CMT solution provides an estimate of the number of cells in the milk (inflammatory cells due to infection by mastitis). […]\nA cow's udder has four quarters, each with their own teat. […] Therefore at each milking period, each quarter was given a clot score and recorded on her milk sheet form. […]"}, "[6]": {"tested_on": "clot formation in the milk of a transgenic cow", "assay": "Heparin therapy in one transgenic cow, clot scores", "assay_type": "in vivo", "protocol": "The inventors also used heparin therapy in one transgenic cow to evaluate if it would prevent clot formation at a dose of 150 IU/kg SQ twice a day, for 5 days. While when the heparin was administered to this cow, the clot scores decreased. […] However, due to the high costs of using heparin, that treatment was not further investigated. Other anticoagulants can be used but many have the disadvantage that they need to be injected intravenously or subcutaneously rather than be or administered orally."}}, "note": "Several values for one entry are separate records, joined by “and”; a condition that tells them apart may be missing. Equal values may be shown once. Marks after values point to notes of the source that are not given here.", "data": [{"molecule": "CC(=O)CC(c1ccccc1)c1c(O)c2ccccc2oc1=O", "note": "(centres unmarked) [warfarin]", "values": [{"measurement": "clot scores", "setting": "[1]; #462 and #463, dry off period after warfarin stopped", "result": "3 (Greater than 10 clots from the quarter on the CMT paddle)"}, {"measurement": "clot score", "setting": "[1]; #462 at day 125, single score during treatment", "result": 1}, {"measurement": "clot scores", "setting": "[1]; #462 at day 149, after warfarin stopped at day 142, milk started to plug the filters", "result": 1}, {"measurement": "clot scores", "setting": "[1]; #463 at day 161, single quarter, after warfarin stopped at day 142", "result": 1}, {"measurement": "time until clot scores increased to level 3 after warfarin was stopped", "setting": "[1]; #474, stopped at day 142 of milking", "result": "≤ 3", "unit": "days"}, {"measurement": "Highest clot score, #474 Frey", "setting": "[1]; after discontinuation of warfarin on day 142 of lactation, lines = week of lactation", "result": "3* (Greater than 10 clots from the quarter on the CMT paddle)"}, {"measurement": "clot scores", "setting": "[1]; cow #13, 0.12 mg/kg, day 17 to day 31", "result": "0-1"}, {"measurement": "adverse effects", "setting": "[1]; cow #13, 0.12 or 0.13 mg/kg per day", "result": "No adverse effects were observed"}, {"measurement": "clot scores", "setting": "[1]; cow #13, 7 days after warfarin therapy was re-initiated", "result": 1}, {"measurement": "clot scores", "setting": "[1]; cow #13, 18 days after warfarin was again discontinued, until dried off", "result": "2 (Less than 10 clots from the quarter on the CMT paddle)"}, {"measurement": "clot scores", "setting": "[1]; cow #13, induced lactation, 0.13 mg/kg orally once a day from Time 0", "result": "0-1"}, {"measurement": "clot scores", "setting": "[1]; cow #13, over the next 11 days after re-initiation", "result": 0}, {"measurement": "clot scores", "setting": "[1]; cow #13, warfarin discontinued for 19 days", "result": "2 (Less than 10 clots from the quarter on the CMT paddle)"}, {"measurement": "clot scores reached with warfarin treatment", "setting": "[1]; cow #13, within a week (conclusion)", "result": "0-1"}, {"measurement": "clot scores", "setting": "[1]; three heifers #462, #463, #474, within a week after warfarin therapy was initiated", "result": 1}, {"measurement": "PT times equal to or above twice the baseline value", "setting": "[1]; three rhFib-transgenic heifers, 0.10 mg/kg daily, PT monitored weekly", "result": "did not occur"}, {"measurement": "rhFib level", "setting": "[2]; heifer 462", "result": "1.3 mg/ml raw milk and 2.09 mg/ml raw milk"}, {"measurement": "rhFib level", "setting": "[2]; heifer 463", "result": 1.61, "unit": "mg/ml raw milk"}, {"measurement": "rhFib level", "setting": "[2]; heifer 474", "result": "0.41 mg/ml raw milk and 0.58 mg/ml raw milk"}, {"measurement": "concentration of rhFib in milk over time upon warfarin treatment", "setting": "[2]; three warfarin-treated heifers, while clot score levels drop", "result": "seem to increase"}, {"measurement": "adverse effects", "setting": "[3]; cow #4289, 120 mg/day (~0.17 mg/kg) orally for 17 days", "result": "no adverse effects were observed"}, {"measurement": "adverse effects", "setting": "[3]; cow #4289, 130 mg/day (~0.18 mg/kg) orally for 6 days, animal euthanized", "result": "developed a bleeding hematoma over the shoulder/thorax"}, {"measurement": "days of therapy for the PT times to double", "setting": "[3]; cow #6685, 100 mg/day (~0.18 mg/kg)", "result": 6, "unit": "days"}, {"measurement": "adverse effects", "setting": "[3]; cow #6685, 100 mg/day (~0.18 mg/kg) orally for 14 days", "result": "No adverse affects were found"}, {"measurement": "LD50 for cattle", "setting": "[4]", "result": 200, "unit": "mg/kg/day"}, {"measurement": "adverse reactions from the warfarin treatment", "setting": "[5]; 0.10 to max 0.15 mg/kg", "result": "did not show any adverse reactions"}, {"measurement": "highest clot scores", "setting": "[5]; after a few days of warfarin 0.10 mg/kg", "result": "0-1"}]}, {"molecule": "heparin", "values": [{"measurement": "clot scores", "setting": "[6]; 150 IU/kg SQ twice a day for 5 days, during administration", "result": "decreased"}, {"measurement": "clot scores", "setting": "[6]; after heparin therapy was discontinued", "result": "remained low and decreased further with time"}]}]}
